Test results taken from US4699914A, “Imidazole group containing 2(1H)-pyridones and method for treating heart insufficiencies in humans” (A. Nattermann & Cie GmbH, priority 1984, dated 1987).

Assays:
Anaesthetized dog = test: Evaluation of the cardiotonic activity in vivo, anaesthetized dog; set-up: species or system dog (adult mongrel dogs of either sex); Blood Pressure: unit not given here; conditions: intravenous
Procedure: The effects of increasing doses of the drugs were measured upon intravenous administration to anaesthetized dogs. As parameters myocardial contractility, heart rate and arterial blood pressure were registered.
Adult mongrel dogs of either sex received a premedication of morphinhydrochloride (1.0 mg/kg s.c.). Thirty minutes later anaesthesia was induced by chloralose/urethane. The animals were heparinised with 500 I.U. heparin/kg (i.v.) as an initial dosage followed by doses of 250 I.U./kg given every 4 hours.
The trachea was intubated but the animals were allowed to breathe spontaneously. The test solutions were injected via a cannula in the vena cephalica antebrachii dextra. Arterial blood pressure was measured by a cannula in the femoral artery. In order to enable the registration of the myocardial contractility a Millar catheter tip pressure transducer was inserted into the left ventricle by way of the left carotid artery. Arterial blood pressure and left ventricular blood pressure were recorded continuously. Heart rate is triggered from the peak of the blood pressure signal.
From the left ventricular blood pressure the first derivative was calculated by a differentiator amplifier to give left ventricular dp/dt which was recorded as well. The compounds were solved in tetrahydrofurfurylalcohol polyethylene glycolether when necessary with additional heating.
Each dose of the test compounds was administered in a volume of 0.1 ml/kg, the duration of the injection was 1 minute.
The results with the tested compound representing the subject of invention 3,6-Dimethyl-5-[4-(1-imidazolyl)-2-thienyl]-2(1H)-pyridone-hydrochloride=Ain comparison with reference substance 4,5-Dihydro-6-[4-(1-imidazolyl)-phenyl]-3(2H)-pyridazinone ((CI 914, Drugs of the Future 9 (1984), 256)=B are given in the table 1.

human platelets = test: Inhibition of the collagen-induced platelets aggregation in vitro (method of Born); assay type: cell-based; conditions: read-out: IC50 (concentration which causes an aggregation inhibition of 50%), platelet rich human plasma
Procedure: The inhibition of the collagen-induced platelets aggregation in vitro was carried out by using the method of Born (Nature, 194, 927-929 (1962)) in using a platelet rich human plasma with the substances of the present invention 3,6-dimethyl-5-[-5-(1-imidazolyl)-2-thienyl]-2(1H)-pyridone-hydrochloride=C, 3,6-dimethyl-5-[4-(1-imidazolyl)phenyl]-2(1H)-pyridone-hydrochloride=D, 5-[4-(1-imidazolyl)-2-thienyl]-6-methyl-2(1H)-pyridone-hydrochloride=E in comparison with the reference substance acetylsalicyclic acid=F.

Water solubility = assay type: physicochemical; conditions: hydrochloride, in words

IC50 (human platelets) [nM]	SMILES	Blood Pressure (Anaesthetized dog; 0.01 mg/kg)	Contractility (Anaesthetized dog; 0.01 mg/kg)	Heart Rate (Anaesthetized dog; 0.01 mg/kg)	Blood Pressure (Anaesthetized dog; 0.0316 mg/kg)	Contractility (Anaesthetized dog; 0.0316 mg/kg)	Heart Rate (Anaesthetized dog; 0.0316 mg/kg)	Blood Pressure (Anaesthetized dog; 0.1 mg/kg)	Contractility (Anaesthetized dog; 0.1 mg/kg)	Heart Rate (Anaesthetized dog; 0.1 mg/kg)	also measured
440	Cc1[nH]c(=O)c(C)cc1-c1ccc(-n2ccnc2)s1 [C]										
370	Cc1[nH]c(=O)c(C)cc1-c1ccc(-n2ccnc2)cc1 [D]										

More lines, now with the values behind:

SMILES	IC50 (human platelets) [nM]	Blood Pressure (Anaesthetized dog; 0.01 mg/kg)	Contractility (Anaesthetized dog; 0.01 mg/kg)	Heart Rate (Anaesthetized dog; 0.01 mg/kg)	Blood Pressure (Anaesthetized dog; 0.0316 mg/kg)	Contractility (Anaesthetized dog; 0.0316 mg/kg)	Heart Rate (Anaesthetized dog; 0.0316 mg/kg)	Blood Pressure (Anaesthetized dog; 0.1 mg/kg)	Contractility (Anaesthetized dog; 0.1 mg/kg)	Heart Rate (Anaesthetized dog; 0.1 mg/kg)	also measured
O=C1CCC(c2ccc(-n3ccnc3)cc2)=NN1 [B, 4,5-Dihydro-6-[4-(1-imidazolyl)-phenyl]-3(2H)-pyridazinone, reference compound]		-1.3	+8.7	+3.6	-0.7	+25.5	+18.9	-10.4	+64.8	+15.4	
Cc1[nH]c(=O)ccc1-c1cc(-n2ccnc2)cs1 [E]	540										
CC1=C(c2ccc(-n3ccnc3)cc2)CCC(=O)N1.Cl [Example 22, 3,4-dihydro-5-[4-(1-imidazolyl)-phenyl]-6-methyl-2(1H)-pyridone-hydrochloride]											water solubility (Water solubility): water soluble
Cc1[nH]c(=O)c(C)cc1-c1cc(-n2ccnc2)cs1.Cl [A, 3,6-Dimethyl-5-[4-(1-imidazolyl)-2-thienyl]-2(1H)-pyridone-hydrochloride]		-0.2	+32.4	+5.9	-4.1	+83.3	+20.0	-17.4	+185.5	+32.1	
